From patent US20040248765A1, “Tumour targeting prodrugs activated by metallo matrixproteinases” (priority 2001, published 2004)
Where a name gives a salt, the structure may show the parent alone. Read-outs that look alike come from different tables or passages of the source. Where a SMILES comes first, the peptide text is derived from it. [ ]: non-standard residue; d: D form. The star is where a group is joined. NH(CH2)3NH(1-anthraquinonyl) = O=C1c2ccccc2C(=O)c2c(NCCCN*)cccc21; Nle = CCCC[C@H](N)C(=O)O; Nva = CCC[C@H](N)C(=O)O; Mob = COc1ccc(C*)cc1

What was measured:
[1] = tested on: MAC15A adenocarcinoma of the colon; assay: In vitro cytotoxicity against MAC15A adenocarcinoma of the colon, 96 hours exposure; type: cell-based
[2] = Mus musculus, exposure time 96 hours, read-out: IC50
[3] = exposure time 96 hours, read-out: IC50

SMILES | melting point | also measured
CCC[C@H](NC(=O)[C@H](C)N)C(=O)NCC(=O)N[C@@H](CC(C)C)C(=O)N1CCC[C@H]1C(=O)NCCCNc1cccc2c1C(=O)c1ccccc1C2=O.O=C(O)C(F)(F)F (H-A[Nva]GLP-{NH(CH2)3NH(1-anthraquinonyl)}) | 198 °C | –
CCC[C@H](NC(=O)[C@H](C)N)C(=O)N[C@@H](CC(C)C)C(=O)NCC(=O)N[C@@H](CC(C)C)C(=O)N1CCC[C@H]1C(=O)NCCCNc1cccc2c1C(=O)c1ccccc1C2=O.O=C(O)C(F)(F)F (H-A[Nva]LGLP-{NH(CH2)3NH(1-anthraquinonyl)}) | 192 °C | –
COc1ccc(CSC[C@H](N)C(=O)NCC(=O)N[C@@H](CC(C)C)C(=O)N2CCC[C@H]2C(=O)NCCCNc2cccc3c2C(=O)c2ccccc2C3=O)cc1.O=C(O)C(F)(F)F (H-C(Mob)GLP-{NH(CH2)3NH(1-anthraquinonyl)}) | 182 °C | –
CC(C)C[C@H](NC(=O)CN)C(=O)N[C@@H](C)C(=O)N[C@@H](CC(C)C)C(=O)N1CCC[C@H]1C(=O)NCCCNc1cccc2c1C(=O)c1ccccc1C2=O.O=C(O)C(F)(F)F (H-GLALP-{NH(CH2)3NH(1-anthraquinonyl)}) | 192 to 194 °C | –
CC(C)C[C@H](NC(=O)[C@H](C)NC(=O)[C@@H](N)CC(C)C)C(=O)N1CCC[C@H]1C(=O)NCCCNc1cccc2c1C(=O)c1ccccc1C2=O.O=C(O)C(F)(F)F (H-LALP-{NH(CH2)3NH(1-anthraquinonyl)}) | 178 to 180 °C | –
CC(C)C[C@H](NC(=O)[C@H](Cc1ccccc1)NC(=O)[C@@H](N)CC(C)C)C(=O)N1CCC[C@H]1C(=O)NCCCNc1cccc2c1C(=O)c1ccccc1C2=O.O=C(O)C(F)(F)F (H-LFLP-{NH(CH2)3NH(1-anthraquinonyl)}) | 184 to 186 °C | –
CCC[C@H](NC(=O)CNC(=O)[C@@H](N)CC(C)C)C(=O)N1CCC[C@H]1C(=O)NCCCNc1cccc2c1C(=O)c1ccccc1C2=O.O=C(O)C(F)(F)F (H-LG[Nva]P-{NH(CH2)3NH(1-anthraquinonyl)}) | 172 to 176 °C | –
CC(C)C[C@H](NC(=O)[C@@H](N)Cc1ccc(O)cc1)C(=O)NCC(=O)N[C@@H](CC(C)C)C(=O)N1CCC[C@H]1C(=O)NCCCNc1cccc2c1C(=O)c1ccccc1C2=O.O=C(O)C(F)(F)F (H-YLGLP-{NH(CH2)3NH(1-anthraquinonyl)}) | 184 to 188 °C | –
CCC[C@H](NC(=O)[C@@H](N)Cc1ccc(O)cc1)C(=O)NCC(=O)N[C@@H](CC(C)C)C(=O)N1CCC[C@H]1C(=O)NCCCNc1cccc2c1C(=O)c1ccccc1C2=O.O=C(O)C(F)(F)F (H-Y[Nva]GLP-{NH(CH2)3NH(1-anthraquinonyl)}) | 174 °C | –
CCCC[C@H](N)C(=O)NCC(=O)N[C@@H](CC(C)C)C(=O)N1CCC[C@H]1C(=O)NCCCNc1cccc2c1C(=O)c1ccccc1C2=O.O=C(O)C(F)(F)F (H-[Nle]GLP-{NH(CH2)3NH(1-anthraquinonyl)}) | 169 °C | –
CCC[C@H](N)C(=O)NCC(=O)N[C@@H](CC(C)C)C(=O)N1CCC[C@H]1C(=O)NCCCNc1cccc2c1C(=O)c1ccccc1C2=O.O=C(O)C(F)(F)F (H-[Nva]GLP-{NH(CH2)3NH(1-anthraquinonyl)}) | 210 °C | –
CCC[C@H](N)C(=O)N[C@@H](CC(C)C)C(=O)NCC(=O)N[C@@H](CC(C)C)C(=O)N1CCC[C@H]1C(=O)NCCCNc1cccc2c1C(=O)c1ccccc1C2=O.O=C(O)C(F)(F)F (H-[Nva]LGLP-{NH(CH2)3NH(1-anthraquinonyl)}) | 189 °C | –
O=C(O)C(F)(F)F.O=C1c2ccccc2C(=O)c2c(NCCCNC(=O)[C@H]3CCCN3)cccc21 [Example 9, 1-[3-(D-Prolylamino)propylamino]anthraquinone trifluoroacetate] | 177 °C | IC50 ([1]; Mus musculus, 96 h): 3.5 µM
CC(C)C[C@H](N)C(=O)N1CCC[C@@H]1C(=O)NCCCNc1cccc2c1C(=O)c1ccccc1C2=O [Example 10, 1-[3-(L-Leucyl-D-prolylamino)propylamino]anthraquinone trifluoroacetate] | – | IC50 ([1]; Mus musculus, 96 h): 7 µM
CC(C)C[C@H](NC(=O)CN)C(=O)N1CCC[C@@H]1C(=O)NCCCNc1cccc2c1C(=O)c1ccccc1C2=O [Example 11, 1-[3-(Glycyl-L-leucyl-D-prolylamino)propylamino]anthraquinone trifluoroacetate] | – | IC50 ([1]; Mus musculus, 96 h): 22 µM
CC(C)C[C@H](NC(=O)CNC(=O)[C@@H](N)CC(C)C)C(=O)N1CCC[C@@H]1C(=O)NCCCNc1cccc2c1C(=O)c1ccccc1C2=O [Example 12, 1-[3-(L-Leucyl-glycyl-L-leucyl-D-prolylamino)propylamino]-anthraquinone trifluoroacetate] (H-LGL[dP]-{NH(CH2)3NH(1-anthraquinonyl)}) | – | IC50 ([1]; Mus musculus, 96 h): 30 µM
CC(C)C[C@H](NC(=O)[C@H](C)NC(=O)[C@H](C)N)C(=O)NCC(=O)N[C@@H](CC(C)C)C(=O)N1CCC[C@@H]1C(=O)NCCCNc1cccc2c1C(=O)c1ccccc1C2=O.O=C(O)C(F)(F)F [Example 14, 1-[3-(L-Alanyl-L-alanyl-L-leucyl-glycyl-L-leucyl-D-prolylamino)-propylamino]anthraquinone trifluoroacetate] | 132 °C | IC50 [1, 2]: 38 µM
CC(C)C[C@H](NC(=O)[C@H](C)NC(=O)[C@H](C)NC(=O)[C@@H](C)N)C(=O)NCC(=O)N[C@@H](CC(C)C)C(=O)N1CCC[C@@H]1C(=O)NCCCNc1cccc2c1C(=O)c1ccccc1C2=O.O=C(O)C(F)(F)F [Example 15, 1-[3-(D-Alanyl-L-alanyl-L-alanyl-L-leucyl-glycyl-L-leucyl-D-prolylamino)propylamino]anthraquinone trifluoroacetate] (H-[dA]AALGL[dP]-{NH(CH2)3NH(1-anthraquinonyl)}) | 166 °C | IC50 ([1]; Mus musculus, 96 h): 40 µM
CCC[C@H](NC(=O)[C@@H](N)CCC)C(=O)NCC(=O)N[C@@H](CC(C)C)C(=O)N1CCC[C@H]1C(=O)NCCCNc1cccc2c1C(=O)c1ccccc1C2=O.O=C(O)C(F)(F)F [Example 45, 1-[3-(L-Norvalyl-L-norvalyl-glycyl-L-leucyl-L-prolylamino)propyl-amino]anthraquinone trifluoroacetate] (H-[Nva][Nva]GLP-{NH(CH2)3NH(1-anthraquinonyl)}) | 174 to 176 °C | IC50 [1, 2]: 4 µM
CCC[C@H](NC(=O)[C@H](C)N)C(=O)N[C@@H](CCC)C(=O)NCC(=O)N[C@@H](CC(C)C)C(=O)N1CCC[C@H]1C(=O)NCCCNc1cccc2c1C(=O)c1ccccc1C2=O [Example 46, 1-3-(L-Alanyl-L-norvalyl-L-norvalyl-glycyl-L-leucyl-L-prolylamino)-propylamino]anthraquinone trifluoroacetate] (H-A[Nva][Nva]GLP-{NH(CH2)3NH(1-anthraquinonyl)}) | – | IC50 [1, 3]: 8 µM
CCC[C@H](NC(=O)[C@H](C)NC(=O)[C@@H](C)N)C(=O)N[C@@H](CCC)C(=O)NCC(=O)N[C@@H](CC(C)C)C(=O)N1CCC[C@H]1C(=O)NCCCNc1cccc2c1C(=O)c1ccccc1C2=O [Example 47, 1-[3-(D-AlanyI-L-alanyl-L-norvalyl-L-norvalyl-glycyl-L-leucyl-L-prolylamino)propylamino]anthraquinone trifluoroacetate] (H-[dA]A[Nva][Nva]GLP-{NH(CH2)3NH(1-anthraquinonyl)}) | – | IC50 [1, 3]: 22 µM
N[C@@H](Cc1ccccc1)C(=O)N1CCC[C@H]1C(=O)NCCCNc1cccc2c1C(=O)c1ccccc1C2=O.O=C(O)C(F)(F)F [Example 72, 1-[3-(L-Phenylalanyl-L-prolylamino)propylamino]anthraquinone trifluoroacetate] | 118 to 120 °C | IC50 ([1]; Mus musculus, 96 h): 3 µM
